Source: patent US20150105252A1, “SUBSTITUTED PYRAZOLES AS HERBICIDES” (E I DU PONT DE NEMOURS AND COMPANY, priority 2013, published 2015)

What was measured:
morningglory [1] = experiment: Test C preemergence; assay type: in vivo, Ipomoea coccinea; details: preemergence; for Plant response rating, Morningglory: 125 g ai/ha, scale 0 to 100, 0 = no effect, 100 = complete control
Method in brief: (§1)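 Seeds were sown in a loam soil–sand blend and sprayed preemergence with compounds formulated in a non-phytotoxic solvent mixture containing surfactant. Postemergence plants, grown in peat/vermiculite medium to 2–18 cm (1- to 4-leaf stage), received the same formulation. After 13 to 15 days in a greenhouse, injury was rated visually against controls (0 = no effect, 100 = complete control).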

velvetleaf = experiment: Test A postemergence; assay type: in vivo, Abutilon theophrasti
Method in brief: (§2)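 Visual injury rating, 0–100 (0 no effect, 100 complete control), vs untreated controls ~10 days after treatment in greenhouse. Pre: directed soil spray on seeded loam/sand. Post: 2–10 cm plants, 1–2 leaf stage. Formulation: non-phytotoxic solvent mix + surfactant.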

morningglory [2] = experiment: Test A postemergence; assay type: in vivo, Ipomoea spp.
Method in brief: as §2

ryegrass, Italian = experiment: Test C preemergence; assay type: in vivo, Lolium multiflorum; details: preemergence; for Plant response rating, Ryegrass, Italian: 125 g ai/ha, scale 0 to 100, 0 = no effect, 100 = complete control
Method in brief: as §1

pigweed [3] = experiment: Test A preemergence; assay type: in vivo, Amaranthus retroflexus; details: preemergence
Method in brief: as §2

crabgrass, large = experiment: Test C preemergence; assay type: in vivo, Digitaria sanguinalis; details: preemergence; for Plant response rating, Crabgrass, Large: 125 g ai/ha, scale 0 to 100, 0 = no effect, 100 = complete control
Method in brief: as §1

pigweed [4] = experiment: Test C preemergence; assay type: in vivo, Amaranthus retroflexus; details: preemergence; for Plant response rating, Pigweed: 125 g ai/ha, scale 0 to 100, 0 = no effect, 100 = complete control
Method in brief: as §1

sedge, umbrella = experiment: Test B flood; assay type: in vivo, Cyperus difformis; details: 250 g ai/ha, visual rating on 0 to 100 scale (0 no effect, 100 complete control), 13 to 15 days
Method in brief: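 Paddy-water application: seedlings at 2-leaf stage, flood depth 3 cm maintained for the test duration. Evaluation after 13–15 days in the greenhouse by eye relative to controls; 0–100 scale.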

soybean = experiment: Test C preemergence; assay type: in vivo, Glycine max; details: preemergence; for Plant response rating, Soybean: 125 g ai/ha, scale 0 to 100, 0 = no effect, 100 = complete control
Method in brief: as §1

morningglory [5] = experiment: Test A preemergence; assay type: in vivo, Ipomoea spp.; details: preemergence
Method in brief: as §2

nutsedge, yellow = experiment: Test C preemergence; assay type: in vivo, Cyperus esculentus; details: preemergence; for Plant response rating, Nutsedge, Yellow: 125 g ai/ha, scale 0 to 100, 0 = no effect, 100 = complete control
Method in brief: as §1

foxtail, giant = experiment: Test A postemergence; assay type: in vivo, Setaria faberii
Method in brief: as §2

corn = experiment: Test A postemergence; assay type: in vivo, Zea mays
Method in brief: as §2

galium = experiment: Test C preemergence; assay type: in vivo, Galium aparine; details: preemergence; for Plant response rating, Galium: 125 g ai/ha, scale 0 to 100, 0 = no effect, 100 = complete control
Method in brief: as §1

[6] = 31 g ai/ha, visual rating, scale 0 to 100 (0 no effect, 100 complete control), 13 to 15 days
[7] = 62 g ai/ha, scale 0 to 100 (0 no effect, 100 complete control), 13 to 15 days
[8] = 250 g ai/ha, scale 0 to 100, 0 is no effect, 100 is complete control
[9] = Postemergence, 500 g ai/ha, 0 to 100 scale (0 no effect, 100 complete control)
[10] = postemergence, 125 g ai/ha, about 10 days, visual rating on 0 to 100 scale (0 no effect, 100 complete control)
[11] = 125 g ai/ha, visual injury, 0 to 100 scale, approx. 10 days
[12] = 500 g ai/ha, visual injury after approx. 10 days, 0 to 100 scale (0 no effect, 100 complete control)
[13] = 125 g ai/ha, visual injury approx. 10 days after treatment

O=C(NCC(F)(F)F)c1cc(CCCl)n(Cc2ccnc(C(F)(F)F)c2)n1 [Compound 143]
30: Nutsedge, Yellow plant response rating (nutsedge, yellow; [6])
35: Ryegrass, Italian plant response rating (ryegrass, Italian; [6]) | Soybean plant response rating (soybean; [6])
80: Velvetleaf plant response rating (velvetleaf; [10]) | Ryegrass, Italian plant response rating (ryegrass, Italian; [7]) | Plant response rating, Nutsedge, Yellow (nutsedge, yellow; 13 to 15 days)
60: Corn plant response rating (corn; [10])
85: Soybean plant response rating (soybean; [7])
100: Morningglory plant response rating (morningglory [1]; [6]) | Morningglory plant response rating (morningglory [1]; [7]) | Plant response rating, Morningglory (morningglory [1]; 13 to 15 days) | Morningglory plant response rating (morningglory [1]; [8]) | Morningglory plant response rating (morningglory [2]; [9]) | Pigweed plant response rating (pigweed [3]; [11]) | Pigweed plant response rating (pigweed [3]; [12]) | Crabgrass, Large plant response rating (crabgrass, large; [6]) | Crabgrass, Large plant response rating (crabgrass, large; [7]) | Plant response rating, Crabgrass, Large (crabgrass, large; 13 to 15 days) | Crabgrass, Large plant response rating (crabgrass, large; [8]) | Pigweed plant response rating (pigweed [4]; [6]) | Pigweed plant response rating (pigweed [4]; [7]) | Plant response rating, Pigweed (pigweed [4]; 13 to 15 days) | Pigweed plant response rating (pigweed [4]; [8]) | Morningglory plant response rating (morningglory [5]; [11]) | Morningglory plant response rating (morningglory [5]; [12]) | Galium plant response rating (galium; [7]) | Galium plant response rating (galium; [8])
98: Plant response rating, Soybean (soybean; 13 to 15 days) | Soybean plant response rating (soybean; [8])
40: Morningglory plant response rating (morningglory [2]; [10]) | Nutsedge, Yellow plant response rating (nutsedge, yellow; [7])
90: Velvetleaf plant response rating (velvetleaf; [9]) | Plant response rating, Ryegrass, Italian (ryegrass, Italian; 13 to 15 days) | Ryegrass, Italian plant response rating (ryegrass, Italian; [8]) | Nutsedge, Yellow plant response rating (nutsedge, yellow; [8]) | Foxtail, Giant plant response rating (foxtail, giant; [9]) | Foxtail, Giant plant response rating (foxtail, giant; [10]) | Corn plant response rating (corn; [9]) | Galium plant response rating (galium; [6])
95: Plant response rating, Sedge, Umbrella (sedge, umbrella) | Plant response rating, Galium (galium; 13 to 15 days)

CCNC(=O)c1cc(CCCl)n(Cc2ccnc(C(F)(F)F)c2)n1 [Compound 179]
100: Plant response rating, Morningglory (morningglory [1]; 13 to 15 days) | Morningglory plant response rating (morningglory [1]; [8]) | Velvetleaf plant response rating (velvetleaf; [9]) | Morningglory plant response rating (morningglory [2]; [9]) | Pigweed plant response rating (0 to 100 scale) (pigweed [3]; [13]) | Pigweed plant response rating (pigweed [3]; [12]) | Crabgrass, Large plant response rating (crabgrass, large; [6]) | Crabgrass, Large plant response rating (crabgrass, large; [7]) | Plant response rating, Crabgrass, Large (crabgrass, large; 13 to 15 days) | Crabgrass, Large plant response rating (crabgrass, large; [8]) | Pigweed plant response rating (pigweed [4]; [6]) | Pigweed plant response rating (pigweed [4]; [7]) | Plant response rating, Pigweed (pigweed [4]; 13 to 15 days) | Morningglory plant response rating (morningglory [5]; [12]) | Galium plant response rating (galium; [7]) | Plant response rating, Galium (galium; 13 to 15 days) | Galium plant response rating (galium; [8])
98: Pigweed plant response rating (pigweed [4]; [8]) | Soybean plant response rating (soybean; [8]) | Galium plant response rating (galium; [6])
60: Morningglory plant response rating (morningglory [2]; [10])
15: Nutsedge, Yellow plant response rating (nutsedge, yellow; [7])
35: Soybean plant response rating (soybean; [6])
95: Morningglory plant response rating (morningglory [1]; [7])
80: Ryegrass, Italian plant response rating (ryegrass, Italian; [7]) | Plant response rating, Sedge, Umbrella (sedge, umbrella) | Morningglory plant response rating (0 to 100 scale) (morningglory [5]; [13])
85: Morningglory plant response rating (morningglory [1]; [6]) | Plant response rating, Soybean (soybean; 13 to 15 days) | Nutsedge, Yellow plant response rating (nutsedge, yellow; [8])
50: Corn plant response rating (corn; [10])
75: Plant response rating, Nutsedge, Yellow (nutsedge, yellow; 13 to 15 days)
5: Ryegrass, Italian plant response rating (ryegrass, Italian; [6])
65: Soybean plant response rating (soybean; [7])
70: Velvetleaf plant response rating (velvetleaf; [10])
10: Nutsedge, Yellow plant response rating (nutsedge, yellow; [6])
90: Plant response rating, Ryegrass, Italian (ryegrass, Italian; 13 to 15 days) | Ryegrass, Italian plant response rating (ryegrass, Italian; [8]) | Foxtail, Giant plant response rating (foxtail, giant; [9]) | Foxtail, Giant plant response rating (foxtail, giant; [10]) | Corn plant response rating (corn; [9])
